In patent US20250388589A1, “TRICYCLIC HETEROCYCLIC DERIVATIVES, COMPOSITIONS AND USES THEREOF” (Danatlas Pharmaceuticals Co., Ltd., priority 2022, published 2025):
Read-outs that look alike come from different tables or passages of the source.

Legend:
[1] = biological target: hPARG (C-terminal His6-tag) (Homo sapiens (Human), UniProt Q86W56); assay: PARG Enzymatic Activity Assay (HTRF); format: biochemical; conditions: hPARG 65 pM final, biotinylated-NAD ribosylated PARP1 8 nM final
Method in brief: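 Readout is time-resolved fluorescence at 620 and 665 nm after 60 min RT detection with streptavidin-Eu cryptate and anti-6HIS-XL665; IC50 by 4-parameter fit, 1% DMSO and no-enzyme controls. Reaction: 8 nM final ribosylated PARP1 substrate for 10 min RT, following 60 min RT enzyme (65 pM)–compound preincubation in Tris pH 7.4 buffer with EDTA, DTT, KCl.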

Kuramochi cell line = assay: Cell Viability Assay (Cell Titer-Glo, 7 days); format: cell-based; conditions: Kuramochi cells, 7 days incubation, read-out: PARG Cell viability (IC50)
Method in brief: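 IC50 from a four-parameter fit of CellTiter-Glo luminescence, scaled between DMSO-treated (high) and medium-only (low) wells. Kuramochi cells (400/well, RPMI/10% FBS) exposed 7 days at 37 °C to 9 concentrations, 3-fold steps, in duplicate.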

Chain of hPARG (C-terminal His6-tag) (Q86W56 whole entry): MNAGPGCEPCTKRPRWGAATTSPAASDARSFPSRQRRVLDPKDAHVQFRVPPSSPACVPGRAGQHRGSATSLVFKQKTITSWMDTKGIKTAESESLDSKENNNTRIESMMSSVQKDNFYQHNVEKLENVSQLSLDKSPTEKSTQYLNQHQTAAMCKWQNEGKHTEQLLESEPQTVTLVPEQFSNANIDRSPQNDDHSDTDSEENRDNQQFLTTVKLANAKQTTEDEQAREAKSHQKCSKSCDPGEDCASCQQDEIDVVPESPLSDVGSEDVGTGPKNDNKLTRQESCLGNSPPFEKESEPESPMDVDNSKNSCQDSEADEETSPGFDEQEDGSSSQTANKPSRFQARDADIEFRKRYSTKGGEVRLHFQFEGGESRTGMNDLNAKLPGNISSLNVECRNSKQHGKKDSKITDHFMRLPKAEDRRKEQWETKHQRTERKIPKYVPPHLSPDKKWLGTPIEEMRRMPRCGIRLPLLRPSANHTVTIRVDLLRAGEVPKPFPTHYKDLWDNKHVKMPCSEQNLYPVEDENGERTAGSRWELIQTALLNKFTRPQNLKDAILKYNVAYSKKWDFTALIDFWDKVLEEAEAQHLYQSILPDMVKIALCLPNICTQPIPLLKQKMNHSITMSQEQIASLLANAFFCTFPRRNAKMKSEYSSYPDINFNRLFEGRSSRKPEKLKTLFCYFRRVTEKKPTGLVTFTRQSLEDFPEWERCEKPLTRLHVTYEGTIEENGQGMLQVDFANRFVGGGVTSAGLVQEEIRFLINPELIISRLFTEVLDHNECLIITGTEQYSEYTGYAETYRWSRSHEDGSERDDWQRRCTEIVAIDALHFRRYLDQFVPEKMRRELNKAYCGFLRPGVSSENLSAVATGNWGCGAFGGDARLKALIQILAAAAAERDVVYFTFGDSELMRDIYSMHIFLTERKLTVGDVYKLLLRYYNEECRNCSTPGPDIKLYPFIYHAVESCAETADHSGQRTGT

Compound	IC50 [1] [µM]	IC50 (Kuramochi cell line; 168 h) [µM]	IC50 (Kuramochi cell line) [µM]
CC(C)C(=O)N1[C@H](C)CN(c2ncnc3c2c2ccc(S(=O)(=O)NC4(C#N)CC4)cc2n3-c2nnc(C(F)F)s2)C[C@H]1C [Example 31, N-(1-Cyanocyclopropyl)-9-(5-(difluoromethyl)-1,3,4-thiadiazol-2-yl)-4-((3R,5R)-4-isobutyryl-3,5-dimethylpiperazin-1-yl)-9H-pyrimido[4,5-b]indole-7-sulfonamide]	0.1 to 1	0.1 to 1	
COCCN(C)C(=O)N1CCC(c2ncnc3c2c2ccc(S(=O)(=O)NC4(C#N)CC4)cc2n3-c2nnc(C(F)F)s2)CC1 [Example 144, 4-(7-(N-(1-cyanocyclo-propyl)sulfamoyl)-9-(5-(difluoromethyl)-1,3,4-thiadiazol-2-yl)-9H-pyrimido[4,5-b]indol-4-yl)-N-(2-methoxyethyl)-N-methylpiperidine-1-carboxamide]	< 0.1	< 0.1	
C[C@H]1CC(c2ncnc3c2c2cc(F)c(S(=O)(=O)NC4(C)CC4)cc2n3-c2nnc(C(F)F)s2)CCN1C(=O)N(C)C (stereo partly drawn) [Example 149, (2S)-4-(9-(5-(difluoromethyl)-1,3,4-thiadiazol-2-yl)-6-fluoro-7-(N-(1-methylcyclopropyl)sulfamoyl)-9H-pyrimido[4,5-b]indol-4-yl)-N,N,2-trimethylpiperidine-1-carboxamide]	< 0.1		< 0.1
CN1CC=C(c2ncnc3c2c2ccc(S(=O)(=O)NC4(C#N)CC4)cc2n3-c2nnc(C(F)F)s2)CC1 [Example 77, N-(1-Cyanocyclopropyl)-9-(5-(difluoromethyl)-1,3,4-thiadiazol-2-yl)-4-(1-methyl-1,2,3,6-tetrahydropyridin-4-yl)-9H-pyrimido[4,5-b]indole-7-sulfonamide]	< 0.1	< 0.1	
CN1CCN(c2ncnc3c2c2ccc(S(=O)(=O)NC4(C#N)CC4)cc2n3-c2nnc(C(F)F)s2)CC1 [Example 56, N-(1-Cyanocyclopropyl)-9-(5-(difluoromethyl)-1,3,4-thiadiazol-2-yl)-4-(4-methylpiperazin-1-yl)-9H-pyrimido[4,5-b]indole-7-sulfonamide]	< 0.1	< 0.1	
N#CC1(NS(=O)(=O)c2ccc3c4c(N5CCN(C(=O)C6CCC6)CC5)ncnc4n(-c4nnc(C(F)F)s4)c3c2)CC1 [Example 30, N-(1-Cyanocyclopropyl)-4-(4-(cyclobutanecarbonyl)piperazin-1-yl)-9-(5-(difluoromethyl)-1,3,4-thiadiazol-2-yl)-9H-pyrimido[4,5-b]indole-7-sulfonamide]	< 0.1	0.1 to 1	
N#CC1(NS(=O)(=O)c2cc3c(cc2F)c2c(N4CCC(O)CC4)ncnc2n3-c2nnc(C(F)F)s2)CC1 [Example 55, N-(1-Cyanocyclopropyl)-9-(5-(difluoromethyl)-1,3,4-thiadiazol-2-yl)-6-fluoro-4-(4-hydroxypiperidin-1-yl)-9H-pyrimido[4,5-b]indole-7-sulfonamide]	< 0.1	< 0.1	
CC1(O)CCN(c2ncnc3c2c2ccc(S(=O)(=O)NC4(C#N)CC4)cc2n3-c2nnc(C(F)F)s2)CC1 [Example 48, N-(1-Cyanocyclopropyl)-9-(5-(difluoromethyl)-1,3,4-thiadiazol-2-yl)-4-(4-hydroxy-4-methylpiperidin-1-yl)-9H-pyrimido[4,5-b]indole-7-sulfonamide]	< 0.1	< 0.1	
CC(C)C(=O)N1CC=C(c2ncnc3c2c2cc(F)c(S(=O)(=O)NC4(C)CC4)cc2n3-c2nnc(C(F)F)s2)CC1 [Example 103, 9-(5-(Difluoromethyl)-1,3,4-thiadiazol-2-yl)-6-fluoro-4-(1-isobutyryl-1,2,3,6-tetrahydropyridin-4-yl)-N-(1-methylcyclopropyl)-9H-pyrimido[4,5-b]indole-7-sulfonamide]	< 0.1	< 0.1	
CC(C)C(=O)N1CCCN(c2ncnc3c2c2ccc(S(=O)(=O)NC4(C#N)CC4)cc2n3-c2nnc(C(F)F)s2)CC1 [Example 25, N-(1-Cyanocyclopropyl)-9-(5-(difluoromethyl)-1,3,4-thiadiazol-2-yl)-4-(4-isobutyryl-1,4-diazepan-1-yl)-9H-pyrimido[4,5-b]indole-7-sulfonamide]	< 0.1	0.1 to 1	
N#CC1(NS(=O)(=O)c2ccc3c4c(N5CCC(F)(F)CC5)ncnc4n(-c4nnc(C(F)F)s4)c3c2)CC1 [Example 52, N-(1-Cyanocyclopropyl)-9-(5-(difluoromethyl)-1,3,4-thiadiazol-2-yl)-4-(4,4-difluoropiperidin-1-yl)-9H-pyrimido[4,5-b]indole-7-sulfonamide]	0.1 to 1	0.1 to 1	
CC1(NS(=O)(=O)c2ccc3c4c(C5CCN(C(=O)N6CCOCC6)CC5)ncnc4n(-c4nnc(C(F)F)s4)c3c2)CC1 [Example 133, 9-(5-(difluoromethyl)-1,3,4-thiadiazol-2-yl)-N-(1-methylcyclopropyl)-4-(1-(morpholine-4-carbonyl)piperidin-4-yl)-9H-pyrimido[4,5-b]indole-7-sulfonamide]	< 0.1	< 0.1	

Now from value to compound, other results behind:

IC50 [1] [µM]	Compound	IC50 (Kuramochi cell line; 168 h) [µM]	IC50 (Kuramochi cell line) [µM]
< 0.1	N#CC1(NS(=O)(=O)c2ccc3c4c(C5CCN(C(=O)[C@@H]6CCOC6)CC5)ncnc4n(-c4nnc(C(F)F)s4)c3c2)CC1 [Example 116, (R)-N-(1-cyanocyclopropyl)-9-(5-(difluoromethyl)-1,3,4-thiadiazol-2-yl)-4-(1-(tetrahydrofuran-3-carbonyl)piperidin-4-yl)-9H-pyrimido[4,5-b]indole-7-sulfonamide]	< 0.1	
< 0.1	N#CC1(NS(=O)(=O)c2ccc3c4c(C5CCN(C(=O)[C@H]6CCCN6)CC5)ncnc4n(-c4nnc(C(F)F)s4)c3c2)CC1 [Example 125, (R)-N-(1-cyanocyclopropyl)-9-(5-(difluoromethyl)-1,3,4-thiadiazol-2-yl)-4-(1-prolylpiperidin-4-yl)-9H-pyrimido[4,5-b]indole-7-sulfonamide]	0.1 to 1	
< 0.1	C[C@@H]1CN(c2ncnc3c2c2ccc(S(=O)(=O)NC4(C#N)CC4)cc2n3-c2nnc(C(F)F)s2)C[C@H](C)N1C(=O)CN1CCOCC1 [Example 39, N-(1-Cyanocyclopropyl)-9-(5-(difluoromethyl)-1,3,4-thiadiazol-2-yl)-4-((3R,5S)-3,5-dimethyl-4-(2-morpholinoacetyl)piperazin-1-yl)-9H-pyrimido[4,5-b]indole-7-sulfonamide]	< 0.1	
< 0.1	N#CC1(NS(=O)(=O)c2ccc3c4c(N5CCN(c6cccnn6)CC5)ncnc4n(-c4nnc(C(F)F)s4)c3c2)CC1 [Example 19, N-(1-Cyanocyclopropyl)-9-(5-(difluoromethyl)-1,3,4-thiadiazol-2-yl)-4-(4-(pyridazin-3-yl)piperazin-1-yl)-9H-pyrimido[4,5-b]indole-7-sulfonamide]	0.1 to 1	
< 0.1	N#CC1(NS(=O)(=O)c2ccc3c4c(C5CCN(C(=O)[C@@H]6CCCO6)CC5)ncnc4n(-c4nnc(C(F)F)s4)c3c2)CC1 [Example 111, (S)-N-(1-cyanocyclopropyl)-9-(5-(difluoromethyl)-1,3,4-thiadiazol-2-yl)-4-(1-(tetrahydrofuran-2-carbonyl)piperidin-4-yl)-9H-pyrimido[4,5-b]indole-7-sulfonamide]	< 0.1	
< 0.1	C[C@@H]1CN(c2ncnc3c2c2ccc(S(=O)(=O)NC4(C#N)CC4)cc2n3-c2nnc(C(F)F)s2)C[C@H](C)N1C(=O)C1COC1 [Example 58, N-(1-Cyanocyclopropyl)-9-(5-(difluoromethyl)-1,3,4-thiadiazol-2-yl)-4-((3S,5R)-3,5-dimethyl-4-(oxetane-3-carbonyl)piperazin-1-yl)-9H-pyrimido[4,5-b]indole-7-sulfonamide]	< 0.1	
< 0.1	CCS(=O)(=O)N1CCC(c2ncnc3c2c2ccc(S(=O)(=O)NC4(C#N)CC4)cc2n3-c2nnc(C(F)F)s2)CC1 [Example 122, N-(1-Cyanocyclopropyl)-9-(5-(difluoromethyl)-1,3,4-thiadiazol-2-yl)-4-(1-(ethylsulfonyl)piperidin-4-yl)-9H-pyrimido[4,5-b]indole-7-sulfonamide]	< 0.1	
< 0.1	N#CC1(NS(=O)(=O)c2ccc3c4c(N5CCN(C(=O)C6CC6)CC5)ncnc4n(-c4nnc(C(F)(F)F)s4)c3c2)CC1 [Example 188, N-(1-Cyanocyclopropyl)-4-(4-(cyclopropanecarbonyl)piperazin-1-yl)-9-(5-(trifluoromethyl)-1,3,4-thiadiazol-2-yl)-9H-pyrimido[4,5-b]indole-7-sulfonamide]	0.1 to 1	
< 0.1	C[C@@H]1CN(c2ncnc3c2c2ccc(S(=O)(=O)NC4(C#N)CC4)cc2n3-c2nnc(C(F)F)s2)CCO1 [Example 21, (R)-N-(1-cyanocyclopropyl)-9-(5-(difluoromethyl)-1,3,4-thiadiazol-2-yl)-4-(2-methylmorpholino)-9H-pyrimido[4,5-b]indole-7-sulfonamide]	0.1 to 1	
< 0.1	N#CC1(NS(=O)(=O)c2ccc3c4c(N5CCN(C(=O)C6CC6)CC5)ncnc4n(-c4nnc(C(F)F)s4)c3c2)CC1 [Example 2, N-(1-Cyanocyclopropyl)-4-(4-(cyclopropanecarbonyl)piperazin-1-yl)-9-(5-(difluoromethyl)-1,3,4-thiadiazol-2-yl)-9H-pyrimido[4,5-b]indole-7-sulfonamide]	< 0.1	
